# pEC50: −log10 of the molar value.
# System: HBV rcDNA
# Experiment: HepDE19 assay with bDNA quantitation of HBV rcDNA
# Assay type: cell-based, hepatitis B virus
# Conditions: HepDE19 assay, inhibition of formation of rcDNA; read-out: DE-19bDNA EC50
# Outline: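 Compounds, top concentration 25 μM in 8-point duplicate series, were applied to Tet-free HepDE19 cultures for 7 days. Branched-DNA quantitation of HBV rcDNA against untreated wells gave EC50 and EC90 by 4-parameter fit. Viability (CC50) came from ATP luminescence on parallel plates incubated 4 days.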
row,Compound,pEC50
1,"CC(c1cnc(N(C)C)c2ccccc12)N(C)C(=O)Nc1ccc(F)c(Cl)c1 (single isomer, unassigned) [Compound 233, 3-(3-Chloro-4-fluorophenyl)-1-(1-(1-(dimethylamino)isoquinolin-4-yl)ethyl)-1-methylurea]",4.85
2,"CCN(C(=O)Nc1ccc(F)c(Cl)c1)C(c1ccccc1)c1cnc(OC)c2ccccc12 (single isomer, unassigned) [Compound 60, 3-(3-Chloro-4-fluorophenyl)-1-ethyl-1-((1-methoxyisoquinolin-4-yl)(phenyl)methyl)urea]",5.06
3,"CCN(C(=O)Nc1ccc(F)c(Cl)c1)C(C)c1c[nH]c(=O)c2ccccc12 (single isomer, unassigned) [Compound 25, 3-(3-Chloro-4-fluorophenyl)-1-ethyl-1-(1-(1-oxo-1,2-dihydroisoquinolin-4-yl)ethyl)urea]",7.70
4,"CC(c1c[nH]c(=O)c2ccccc12)N(C[C@H]1CCCO1)C(=O)Nc1ccc(F)c(Cl)c1 (single isomer, unassigned) [Compound 156]",6.77
5,"CC(c1c[nH]c(=O)c2ccccc12)N(CCO)C(=O)Nc1ccc(F)c(Cl)c1 (single isomer, unassigned) [Compound 196, 3-(3-Chloro-4-fluorophenyl)-1-(2-hydroxyethyl)-1-(1-(1-oxo-1,2-dihydroisoquinolin-4-yl)ethyl)urea]",4.70
6,"CC(c1cn(C2CC2)c(=O)c2ccccc12)N(C)C(=O)Nc1ccc(F)c(Cl)c1 (single isomer, unassigned) [Compound 190, 3-(3-Chloro-4-fluorophenyl)-1-(1-(2-cyclopropyl-1-oxo-1,2-dihydroisoquinolin-4-yl)ethyl)-1-methylurea]",6.77
7,"CCOCCN(C(=O)Nc1ccc(F)c(Cl)c1)C(C)c1cnc(OC)c2ccccc12 (single isomer, unassigned) [Compound 125, 3-(3-Chloro-4-fluorophenyl)-1-(2-ethoxyethyl)-1-(1-(1-methoxyisoquinolin-4-yl)ethyl)urea]",4.70
8,"CC(c1cn(Cc2nc[nH]n2)c(=O)c2ccccc12)N(C)C(=O)Nc1ccc(F)c(Cl)c1 (single isomer, unassigned) [Compound 270, 1-(1-(2-((1H-1,2,4-Triazol-3-yl)methyl)-1-oxo-1,2-dihydroisoquinolin-4-yl)ethyl)-3-(3-chloro-4-fluorophenyl)-1-methylurea]",4.66
9,"CC(c1c[nH]c(=O)c2ccccc12)N(CCC#N)C(=O)Nc1ccc(F)c(Cl)c1 (single isomer, unassigned) [Compound 113, 3-(3-Chloro-4-fluorophenyl)-1-(2-cyanoethyl)-1-(1-(1-oxo-1,2-dihydroisoquinolin-4-yl)ethyl)urea]",7.22

# Same assay, conditions: HepDE19 assay, inhibition of formation of relaxed circular DNA (rcDNA), bDNA quantitation; read-out: DE-19bDNA EC50
row,Compound,pEC50
1,"CC(c1c[nH]c(=O)c2c(F)c(F)ccc12)N(C)C(=O)Nc1ccc(F)cc1 (single isomer, unassigned) [Compound 432, 1-(1-(7,8-Difluoro-1-oxo-1,2-dihydroisoquinolin-4-yl)ethyl)-3-(4-fluorophenyl)-1-methylurea]",4.95
2,"CC(C)CN(C(=O)Nc1ccc(F)c(Cl)c1)C(C)c1c[nH]c(=O)c2c(F)c(F)ccc12 (single isomer, unassigned) [Compound 339, 3-(3-Chloro-4-fluorophenyl)-1-(1-(7,8-difluoro-1-oxo-1,2-dihydroisoquinolin-4-yl)ethyl)-1-isobutylurea]",8.30
3,"CC(c1cnc(OCc2ncn(C)n2)c2cc(F)c(F)cc12)N(CCCO)C(=O)Nc1ccc(F)c(Cl)c1 (single isomer, unassigned) [Compound 348, 3-(3-chloro-4-fluorophenyl)-1-(1-(6,7-difluoro-1-((1-methyl-1H-1,2,4-triazol-3-yl)methoxy)isoquinolin-4-yl)ethyl)-1-(3-hydroxypropyl)urea]",5.96
4,"CC(c1c[nH]c(=O)c2c(F)cc(F)cc12)N(CCCO)C(=O)Nc1ccc(F)cc1 (single isomer, unassigned) [Compound 378, 1-(1-(6,8-Difluoro-1-oxo-1,2-dihydroisoquinolin-4-yl)ethyl)-3-(4-fluorophenyl)-1-(3-hydroxypropyl) urea]",7.62
5,"CC(c1c[nH]c(=O)c2ccccc12)N(Cc1cccnc1)C(=O)Nc1ccc(F)c(Cl)c1 (single isomer, unassigned) [Compound 307, 3-(3-Chloro-4-fluorophenyl)-1-(1-(1-oxo-1,2-dihydroisoquinolin-4-yl)ethyl)-1-(pyridin-3-ylmethyl) urea]",4.70

# Same assay, conditions: Hepatitis B virus, HepDE19, HepDE19 assay, inhibition of formation of rcDNA; read-out: DE-19bDNA EC50
row,Compound,pEC50
1,"Cc1cc(NC(=O)N(C)[C@H](C)c2c[nH]c(=O)c3ccccc23)ccc1F [Compound 32, (R)-3-(4-Fluoro-3-methylphenyl)-1-methyl-1-(1-(1-oxo-1,2-dihydroisoquinolin-4-yl)ethyl)urea]",7.52
2,"CCN(C(=O)Nc1ccc(F)c(Cl)c1)C(c1cnc(OC)c2ccccc12)C(C)C (single isomer, unassigned) [Compound 44, 3-(3-Chloro-4-fluorophenyl)-1-ethyl-1-(1-(1-methoxyisoquinolin-4-yl)-2-methylpropyl)urea]",4.60
3,"COCCn1cc(C(C)N(C)C(=O)Nc2ccc(F)c(Cl)c2)c2ccccc2c1=O (single isomer, unassigned) [Compound 191, 3-(3-Chloro-4-fluorophenyl)-1-(1-(2-(2-methoxyethyl)-1-oxo-1,2-dihydroisoquinolin-4-yl)ethyl)-1-methylurea]",6.44
4,"CCCN(Cc1cnc(OC)c2ccccc12)C(=O)Nc1ccc(F)c(Cl)c1 [Compound 20, 3-(3-Chloro-4-fluorophenyl)-1-((1-methoxyisoquinolin-4-yl)methyl)-1-propylurea]",6.36
5,"CC(c1c[nH]c(=O)c2ccccc12)N(C)C(=O)Nc1ccc(F)c(Cl)c1 (racemic) [Compound 12, 3-(3-Chloro-4-fluorophenyl)-1-methyl-1-(1-(1-oxo-1,2-dihydroisoquinolin-4-yl)ethyl)urea]",6.80
6,"CCN(Cc1cnc(OCCO)c2ccccc12)C(=O)Nc1ccc(F)c(Cl)c1 [Compound 29, 3-(3-Chloro-4-fluorophenyl)-1-ethyl-1-((1-(2-hydroxyethoxy)isoquinolin-4-yl)methyl)urea]",5.38
7,"C[C@H](c1c[nH]c(=O)c2ccccc12)N(C)C(=O)Nc1ccc(F)c(Cl)c1 [Compound 14, (R)-3-(3-chloro-4-fluorophenyl)-1-methyl-1-(1-(1-oxo-1,2-dihydroisoquinolin-4-yl)ethyl)urea]",7.40

# Same assay, conditions: Hepatitis B virus, HepDE19, read-out: DE-19bDNA EC50 (μM), HepDE19 assay, inhibition of formation of relaxed circular DNA (rcDNA), bDNA quantitation
row,Compound,EC50
1,"CC(c1c[nH]c(=O)c2c(F)c(F)ccc12)N(C)C(=O)N[C@@H](C)c1ccccc1 (single isomer, unassigned) [Compound 487]",23 µM

# Same assay, conditions: read-out: DE-19bDNA EC50; HepDE19 assay, inhibition of formation of rcDNA
row,Compound,pEC50
1,"CCN(C(=O)Nc1ccc(F)c(Cl)c1)C(c1c[nH]c(=O)c2ccccc12)C(C)C (single isomer, unassigned) [Compound 55, 3-(3-Chloro-4-fluorophenyl)-1-ethyl-1-(2-methyl-1-(1-oxo-1,2-dihydroisoquinolin-4-yl)propyl)urea]",4.96

# Same assay, conditions: read-out: DE-19bDNA EC50; HepDE19 assay, inhibition of formation of relaxed circular DNA (rcDNA), bDNA quantitation
row,Compound,pEC50
1,"CC(c1c[nH]c(=O)c2cc(F)c(F)cc12)N(C)C(=O)Nc1ccccc1 (single isomer, unassigned) [Compound 398, 1-(1-(6,7-Difluoro-1-oxo-1,2-dihydroisoquinolin-4-yl)ethyl)-1-methyl-3-phenylurea]",4.80
2,"CC(c1c[nH]c(=O)c2cc(F)c(F)cc12)N(C)C(=O)Nc1cc(Cl)cc(Cl)c1 (single isomer, unassigned) [Compound 416, 3-(3,5-Dichlorophenyl)-1-(1-(6,7-difluoro-1-oxo-1,2-dihydroisoquinolin-4-yl)ethyl)-1-methylurea]",5.00

# Reference: patent US20230045421A1 (priority 2018, published 2023)
